ChEMBL document CHEMBL4265923, “In vitro and in vivo characterization of a novel, highly potent p53-MDM2 inhibitor” (Bioorg Med Chem Lett, 2018)

Assays:
SJSA-1 [1] = experiment: Antiproliferative activity against human SJSA1 cells after 72 hrs by YO-PRO-1 iodide staining-based assay; assay type: functional; details: SJSA-1, 72 h
[2] = Intrinsic clearance in rat liver microsomes; assay type: ADME, microsome
[3] = Half life in rat liver microsomes; assay type: ADME, microsome
[4] = Intrinsic clearance in mouse liver microsomes; assay type: ADME, microsome
[5] = Intrinsic clearance in human liver microsomes; assay type: ADME, microsome
Rattus norvegicus [6] = experiment: Upregulation of MDM2 mRNA expression level in po dosed nude rat tumor xenografted with human SJSA1 cells by RT-PCR method
[7] = Tmax in Sprague-Dawley rat at 3 mg/kg, po; assay type: ADME, organism-based; details: in vivo
[8] = Half life in human liver microsomes; assay type: ADME, microsome
[9] = Half life in mouse liver microsomes; assay type: ADME, microsome
[10] = Half life in monkey liver microsomes; assay type: ADME, Macaca mulatta, microsome; details: rhesus monkey
SJSA-1 [11] = experiment: Antitumor activity against human SJSA1 cells xenografted in nude rat assessed as tumor regression at 5 mg/kg, po qd for 14 days; assay type: functional
[12] = Volume of distribution at steady state in Sprague-Dawley rat at 1 mg/kg, iv; assay type: ADME, organism-based; details: in vivo, read-out: Vdss
SJSA-1 [13] = experiment: Antitumor activity against human SJSA1 cells xenografted in nude rat assessed as tumor regression at 3 mg/kg, po qd for 14 days; assay type: functional
Rattus norvegicus [14] = experiment: Dose normalized AUC in Sprague-Dawley rat at 3 mg/kg, po; assay type: ADME, organism-based; details: in vivo
[15] = Half life in Sprague-Dawley rat at 1 mg/kg, iv; assay type: ADME, organism-based; details: in vivo
Rattus norvegicus [16] = experiment: Dose normalized Cmax in Sprague-Dawley rat at 3 mg/kg, po; assay type: ADME, organism-based; details: in vivo
Rattus norvegicus [17] = experiment: Upregulation of p21 mRNA expression level in po dosed nude rat tumor xenografted with human SJSA1 cells by RT-PCR method
[18] = Tmax in nude rat xenografted with human SJSA1 cells at 1 to 5 mg/kg, po qd; assay type: ADME, organism-based; details: in vivo
Rattus norvegicus [19] = experiment: Dose normalized AUC in Sprague-Dawley rat at 1 mg/kg, iv; assay type: ADME, organism-based; details: in vivo
[20] = Oral bioavailability in Sprague-Dawley rat at 3 mg/kg; assay type: ADME, organism-based; details: in vivo
Rattus norvegicus [21] = experiment: Toxicity in nude rat xenografted with human SJSA1 cells assessed as increase in body weight at 1 to 5 mg/kg, po qd for 14 days; assay type: organism-based; details: in vivo, 336 h
[22] = Clearance in Sprague-Dawley rat at 1 mg/kg, iv; assay type: ADME, organism-based; details: in vivo
[23] = Half life in dog liver microsomes; assay type: ADME, Canis lupus familiaris, microsome
SJSA-1 [24] = experiment: Antitumor activity against human SJSA1 cells xenografted in po dosed nude rat assessed as tumor growth inhibition administered once daily for 14 days; assay type: functional, organism-based
[25] = Intrinsic clearance in dog liver microsomes; assay type: ADME, Canis lupus familiaris, microsome
Rattus norvegicus [26] = experiment: Upregulation of PUMA mRNA expression level in po dosed nude rat tumor xenografted with human SJSA1 cells by RT-PCR method
SJSA-1 [27] = experiment: Antitumor activity against human SJSA1 cells xenografted in nude rat assessed as reduction in tumor volume at 1 mg/kg, po qd for 14 days; assay type: functional; parameters: scale not given: the % may be the effect or the level left
[28] = Fraction absorbed of compound by PAMPA; assay type: ADME
[29] = Intrinsic clearance in monkey liver microsomes; assay type: ADME, Macaca mulatta, microsome; details: rhesus monkey

Work on `COc1ccc(-c2nc3c(n2C(C)C)C(c2ccc(Cl)cc2C)N(c2cc(Cl)ccc2C)C3=O)c(OC)n1` (racemic) yielded a GI50 (SJSA-1 [1]) of 186 nM, a CLint [2] of 69 µL/min/mg and a half-life [3] of 20 min.

For `COc1ccncc1-c1nc2c(n1C(C)C)[C@H](c1ccc(Cl)cc1C)N(c1cc(Cl)ccc1C)C2=O`, the GI50 (SJSA-1 [1]) was 345 nM, the CLint [2] was 117 µL/min/mg and the half-life [3] was 12 min.

Work on `COc1ccccc1-c1cc2c(n1C(C)C)C(c1ccc(Cl)cc1C)N(c1cc(Cl)ccc1C)C2=O` (configuration not stated) yielded a GI50 (SJSA-1 [1]) of 216 nM.

`COc1ccccc1-n1nc2c(c1C(C)C)[C@H](c1ccc(Cl)cc1C)N(c1cc(Cl)ccc1C)C2=O` gave a CLH [4] of 495 µL/min/mg, a CLint [2] of 385 µL/min/mg and a CLH [5] of 115 µL/min/mg.

`COc1ccccc1-c1nc2c(n1C(C)C)[C@H](c1ccc(Cl)cc1C)N(c1cc(Cl)ccc1C)C2=O` showed a GI50 (SJSA-1 [1]) of 62 to 64 nM, a CLint [2] of 385 µL/min/mg and a half-life [3] of 3.6 min.

With `COc1ccc(F)cc1-c1nc2c(n1C(C)C)C(c1ccc(Cl)cc1C)N(c1cc(Cl)ccc1C)C2=O` (racemic) the GI50 (SJSA-1 [1]) was 228 nM, the CLint [2] was 460 µL/min/mg and the half-life [3] was 3.3 min.

In the case of `COc1ncc(-c2nc3c(n2C(C)C)[C@H](c2ccc(Cl)cc2C)N(c2cc(Cl)ccc2C)C3=O)c(OC)n1`, the Activity (Rattus norvegicus [6]) is reported as “Dose-dependent effect”, the Tmax [7] is reported as 120 min and the half-life [8] is reported as 17 min. The half-life [9] was 39 min, the half-life [10] was 81 min and the Activity (SJSA-1 [11]) was 98%. For the same molecule, the Vd [12] was 4.4 L/kg, the Activity (SJSA-1 [13]) was 32% and the AUC/dose (Rattus norvegicus [14]) was 719 nM·h. The half-life [15] was 108 min, the Cmax/dose (Rattus norvegicus [16]) was 75 nM/(mg/kg) and the Activity (Rattus norvegicus [17]) was “Dose-dependent effect”. It also gave a CLH [4] of 36 µL/min/mg, a Tmax [18] of 180 min and a GI50 (SJSA-1 [1]) of 11 nM. It also gave an AUC/dose (Rattus norvegicus [19]) of 1080 nM·h, a bioavailability [20] of 67% and a CLint [2] of 35 µL/min/mg. For the same molecule, the Activity (Rattus norvegicus [21]) was “Non-Toxic”, the clearance [22] was 32 mL/min/kg and the CLH [5] was 72 µL/min/mg. For the same molecule, the half-life [23] was 40 min, the half-life [3] was 39 min and the TGI (SJSA-1 [24]) was “Dose-dependent effect”. For the same molecule, the CLH [25] was 35 µL/min/mg, the Activity (Rattus norvegicus [26]) was “Dose-dependent effect” and the Activity (SJSA-1 [27]) was 40%. The Fa [28] was 99% and the CLH [29] was 20 µL/min/mg.

Molecule `COc1ncc(-c2nc3c(n2C(C)C)[C@@H](c2ccc(Cl)cc2C)N(c2cc(Cl)ccc2C)C3=O)c(OC)n1` has a GI50 (SJSA-1 [1]) of 1000 nM, a CLint [2] of 25 µL/min/mg and a half-life [3] of 56 min.

In the case of `COc1ncncc1-c1nc2c(n1C(C)C)C(c1ccc(Cl)cc1C)N(c1cc(Cl)ccc1C)C2=O` (racemic), the GI50 (SJSA-1 [1]) is reported as 111 nM, the CLint [2] is reported as 178 µL/min/mg and the half-life [3] is reported as 8 min.

Molecule `COc1cccc(F)c1-c1nc2c(n1C(C)C)C(c1ccc(Cl)cc1C)N(c1cc(Cl)ccc1C)C2=O` (racemic) has a GI50 (SJSA-1 [1]) of 276 nM, a CLint [2] of 450 µL/min/mg and a half-life [3] of 3.3 min.

`COc1ncc(-c2nc3c(n2C(C)C)C(c2ccc(Cl)cc2C)N(c2cc(Cl)ccc2C)C3=O)c(OC)n1` (racemic) showed a GI50 (SJSA-1 [1]) of 26 nM, a CLint [2] of 47 µL/min/mg and a half-life [3] of 30 min.
